ChEMBL document CHEMBL5154843, “Discovery of spirooxadiazoline oxindoles with dual-stage antimalarial activity” (Eur J Med Chem, 2022)
Activity calls are given as the source filed them. The calls are words filed in the database; no cut-off is given here.

Assays:
[1] = test system: Plasmodium falciparum; assay: Antiplasmodial activity against erythrocytic stage of chloroquine-resistant Plasmodium falciparum W2 measured after 48 hrs by flow cytometry; assay type: functional, organism-based; details: W2, 48 h
[2] = test system: Plasmodium berghei; assay: Antiplasmodial activity against hepatic stage Plasmodium berghei infected in Huh-7 cells assessed as cell viability incubated for 1 hrs and measured by 48 hrs by bioluminescence assay; assay type: functional, organism-based
[3] = test system: Plasmodium falciparum; assay: Antiplasmodial activity against Plasmodium falciparum 3D7 measured after 72 hrs by parasite proliferation assay; assay type: functional, organism-based; details: 3D7, 72 h
[4] = test system: Plasmodium falciparum; assay: Inhibition of plasmodium falciparum 3D7 ATP4 ATPase activity under high-soidum conditions at 50 uM
[5] = test system: Plasmodium falciparum; assay: Inhibition of plasmodium falciparum 3D7 ATP4 ATPase activity under low-soidum conditions at 50 uM
[6] = test system: Plasmodium falciparum; assay: Antiplasmodial activity against Plasmodium falciparum 3D7 assessed as effect on cytosolic sodium concentration at 50 nM measured after 90 mins by SBFI-dye based fluorescence method; assay type: functional, organism-based
[7] = test system: Plasmodium falciparum; assay: Inhibition of plasmodium falciparum 3D7 ATP4 ATPase activity under high-soidum conditions at 125 nM

SMILES	IC50 [1] [µM]	IC50 [2] [µM]	further results
O=C1Nc2ccccc2C12OC(c1cccc(Cl)c1)=NN2c1ccccc1 (stereo unspecified)	> 10		
COc1ccc(C2=NN(c3ccccc3)C3(O2)C(=O)Nc2ccccc23)cc1 (stereo unspecified)	> 10		
COc1ccc(C2=NN(c3ccccc3)C3(O2)C(=O)Nc2ccc(Cl)cc23)cc1 (stereo unspecified)	> 10		
CC(C)(C)C1=NN(c2cccc(Cl)c2)C2(O1)C(=O)Nc1ccc(Cl)cc12 (stereo unspecified)	3.5	5.3	
CC(C)(C)C1=NN(c2ccccc2Cl)C2(O1)C(=O)Nc1ccc(Br)cc12 (stereo unspecified)	> 10		
O=C1Nc2ccccc2C12OC(c1ccccc1)=NN2c1cccc(Cl)c1 (stereo unspecified)	> 10		
COc1ccc(C2=NN(c3ccccc3)C3(O2)C(=O)Nc2c(Cl)cccc23)cc1 (stereo unspecified)	> 10		
O=C1Nc2c(Cl)cccc2C12OC(c1ccc(Cl)cc1)=NN2c1ccccc1 (stereo unspecified)	> 10		
O=C1Nc2ccc(Cl)cc2C12OC(c1ccc(Cl)cc1)=NN2c1ccccc1 (stereo unspecified)	> 10		
O=C1Nc2ccc(Br)cc2C12OC(c1cccc(Cl)c1)=NN2c1ccccc1 (stereo unspecified)	> 10		
CC(C)(C)C1=NN(c2cccc(Cl)c2)C2(O1)C(=O)Nc1cc(Br)ccc12 (stereo unspecified)	4.6	9.5	
O=C1Nc2ccc(Cl)cc2C12OC(c1cccc(Cl)c1)=NN2c1ccccc1 (stereo unspecified)	> 10		
O=C1Nc2ccc(Br)cc2C12OC(c1ccccc1)=NN2c1ccc(Cl)cc1 (stereo unspecified)	6	4.1	IC50 [3]: 6.2 µM; inhibition [4]: Active; inhibition [5]: Active
O=C1Nc2c(Cl)cccc2C12OC(c1ccccc1)=NN2c1cccc(Cl)c1 (stereo unspecified)	> 10		
O=C1Nc2ccc(Br)cc2C12OC(c1ccccc1)=NN2c1cccc(Cl)c1 (stereo unspecified)	6.7	3.9	
CC(C)(C)C1=NN(c2cccc(Cl)c2)C2(O1)C(=O)Nc1cc(Cl)ccc12 (stereo unspecified)	3.8	> 10	
O=C1Nc2cc(Br)ccc2C12OC(c1ccccc1)=NN2c1cccc(Cl)c1 (stereo unspecified)	> 10		
O=C1Nc2cc(Cl)ccc2C12OC(c1ccccc1)=NN2c1cccc(Cl)c1 (stereo unspecified)	8.6	7.2	
CC(C)(C)C1=NN(c2cccc(Cl)c2)C2(O1)C(=O)Nc1ccc(Br)cc12 (stereo unspecified)	7.5	9	
O=C1Nc2c(Cl)cccc2C12OC(c1cccc(Cl)c1)=NN2c1cccc(Cl)c1 (stereo unspecified)	> 10		
O=C1Nc2ccc(Cl)cc2C12OC(c1ccccc1)=NN2c1cccc(Cl)c1 (stereo unspecified)	6.4	7	
C[C@H]1Cc2c([nH]c3cc(Cl)c(F)cc23)[C@@]2(N1)C(=O)Nc1ccc(Cl)cc12			Activity [6]: Active; inhibition [7]: Active
O=C1Nc2c(Cl)cccc2C12OC(c1ccccc1)=NN2c1ccc(Cl)cc1 (stereo unspecified)	7.6	> 10	
O=C1Nc2ccc(Br)cc2C12OC(c1ccc(Cl)cc1)=NN2c1ccccc1 (stereo unspecified)	> 10		
COc1ccc(C2=NN(c3ccccc3)C3(O2)C(=O)Nc2ccc(Br)cc23)cc1 (stereo unspecified)	8.3	> 10	
CC(C)(C)C1=NN(c2ccccc2Cl)C2(O1)C(=O)Nc1ccc(Cl)cc12 (stereo unspecified)	> 10		
O=C1Nc2c(Cl)cccc2C12OC(c1cccc(Cl)c1)=NN2c1ccccc1 (stereo unspecified)	> 10		
